# Laboratory results: ChEMBL document CHEMBL1124129, “Binding of steroids to the progestin and glucocorticoid receptors analyzed by correspondence analysis” (J Med Chem, 1988)
# Target: T1, Glucocorticoid receptor (Rattus norvegicus) (UniProt P06536)
# T1 sequence (whole entry): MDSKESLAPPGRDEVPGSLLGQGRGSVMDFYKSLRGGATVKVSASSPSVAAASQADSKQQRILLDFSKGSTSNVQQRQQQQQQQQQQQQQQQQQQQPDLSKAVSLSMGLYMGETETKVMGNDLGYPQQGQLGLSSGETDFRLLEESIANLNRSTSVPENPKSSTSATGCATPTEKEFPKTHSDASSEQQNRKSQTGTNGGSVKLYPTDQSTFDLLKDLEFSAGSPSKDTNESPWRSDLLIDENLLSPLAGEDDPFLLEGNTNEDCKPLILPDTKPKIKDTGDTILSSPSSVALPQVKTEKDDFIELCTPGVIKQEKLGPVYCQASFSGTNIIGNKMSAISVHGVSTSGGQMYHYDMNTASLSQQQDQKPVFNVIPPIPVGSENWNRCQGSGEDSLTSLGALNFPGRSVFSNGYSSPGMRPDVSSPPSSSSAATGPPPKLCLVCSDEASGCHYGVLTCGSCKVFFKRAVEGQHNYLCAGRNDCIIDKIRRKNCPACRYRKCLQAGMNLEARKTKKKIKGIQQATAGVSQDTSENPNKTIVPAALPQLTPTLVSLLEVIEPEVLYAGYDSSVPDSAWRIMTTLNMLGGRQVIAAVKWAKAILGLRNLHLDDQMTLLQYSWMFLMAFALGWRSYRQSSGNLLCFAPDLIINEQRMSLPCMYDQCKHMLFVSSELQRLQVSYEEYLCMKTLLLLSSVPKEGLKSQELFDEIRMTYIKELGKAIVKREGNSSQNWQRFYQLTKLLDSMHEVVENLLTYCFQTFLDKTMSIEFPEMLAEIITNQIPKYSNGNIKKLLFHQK
# Test: Relative binding affinity to glucocorticoid receptor on cytosol fromt hymus at 4 hr
structure (smiles),measurement,value
CC#C[C@]1(O)CCC2C3CCC4=CC(=O)CCC4=C3C(c3cccs3)CC21C (stereo partly specified),RBA,270
